Measurements reported in patent US11944623B2, “Modulators of Kv3 channels to treat pain” (Autifony Therapeutics Limited, priority 2015, dated 2024).

What was measured:
[1] = molecular target: T1, Human Kv7.2/7.3 heteromeric channels (Homo sapiens, UniProt O43525+O43526); test: Kv7.2/7.3 patch clamp assay; format: cell-based; settings: 10 µM concentration (N=3)
T1 construct: expressed in transfected cells
Description: Human Kv7.2/7.3 heteromeric channels were stably expressed in a HEK293 cell line. Cells were plated onto 13 mm plastic dishes and incubated for 1-3 days in a 5% CO2 incubator for conventional whole-cell patch clamp experiments. Electrophysiological recordings were made using an automated patch clamp platform (QPatch, Sophion Biosciences). Internal (pipette) solution contained (in mM): K-Aspartate (130), KCl (15), MgCl2 (5.5), Na2ATP (5), K2PCr (5), EGTA (20), HEPES (10), pH 7.25 with KOH, was used to study Kv7.2/7.3 currents. Cells were superfused at room temperature with a standard physiological solution containing (mM): NaCl (140), KCl (4), CaCl2 (2), MgCl2 (1), glucose (10), HEPES (10), pH 7.35 with NaOH.
Patch pipettes were pulled from borosilicate glass and had tip resistances of 2-4 MW when filled with the above solution. Capacitative transients were compensated electronically from the recordings. However, the voltage drop across the series resistance and the liquid junction potential were not compensated. The series resistance was generally less than 10 MG (n=5 cells), with a mean cell capacity of 25±5 pF.
In some cases, manual patch clamp was carried out using an Axon 200B amplifier (Axon Instruments). The software program pClamp (version 10) from Axon Instruments was used to stimulate and record electrical activity. […]

hKv3.4 channels = molecular target: T2, hKv3.4 channels (Homo sapiens, UniProt Q03721); test: Kv3.4 Assay 3 (two-electrode voltage clamp, Xenopus oocytes); format: cell-based; design: dose or concentration left out as unconfirmed
T2 construct: expressed in transfected cells; host or cells: Xenopus laevis oocytes, microinjected in vitro transcribed mRNA
T2 sequence (Q03721 1-635): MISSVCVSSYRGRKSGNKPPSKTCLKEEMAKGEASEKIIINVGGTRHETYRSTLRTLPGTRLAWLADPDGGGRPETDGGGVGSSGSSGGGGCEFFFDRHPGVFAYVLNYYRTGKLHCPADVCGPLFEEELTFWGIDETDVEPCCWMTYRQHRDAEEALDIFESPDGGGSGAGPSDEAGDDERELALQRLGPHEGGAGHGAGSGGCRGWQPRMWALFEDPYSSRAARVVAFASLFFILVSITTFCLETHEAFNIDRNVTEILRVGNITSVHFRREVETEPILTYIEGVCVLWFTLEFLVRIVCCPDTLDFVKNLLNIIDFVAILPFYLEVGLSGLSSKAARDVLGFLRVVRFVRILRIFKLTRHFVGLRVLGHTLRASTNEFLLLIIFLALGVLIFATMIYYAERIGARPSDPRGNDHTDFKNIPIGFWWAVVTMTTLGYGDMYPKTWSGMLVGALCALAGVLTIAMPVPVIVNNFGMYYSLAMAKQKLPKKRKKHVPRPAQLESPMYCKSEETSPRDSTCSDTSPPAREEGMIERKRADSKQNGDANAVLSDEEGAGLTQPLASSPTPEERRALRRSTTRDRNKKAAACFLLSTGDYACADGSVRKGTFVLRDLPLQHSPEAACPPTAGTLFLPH
Description: hKv3.4 channels were heterologously expressed in Xenopus ooctyes following microinjection of in vitro transcribed mRNA (mMessage mMachine kit, Ambion, Austin, TX). Whole-oocyte currents were recorded 1-4 day post-microinjection at room temperature (21-23° C.) under two-electrode voltage-clamp conditions (OC-725C, Warner, Hamden, CT). ND-96 and ND-96 plus the test compound were delivered using a gravity-driven perfusion system. Whole-oocyte currents mediated by hKv3.4 channels were elicited by 400 ms depolarizing steps from −40 to 60 mV in 10 mV increments from a holding potential of −100 mV under in the absence and then presence of test compound. Voltage-conductance curves were constructed from the peak currents evoked at each voltage step, and the data were fitted to a Boltzmann equation. Data acquisition, leak subtraction and initial analyses were performed using pClamp 9.2/10.3 (Molecular Devices, Sunnyvale, CA). Macroscopic currents were low-pass filtered at 0.5-1 kHz and digitized at 1-2 kHz. Leak and capacitive currents were subtracted on line using a p/4 subtraction strategy. Xenopus laevis frogs were handled according IACUC approved protocols and regulations.

effect on Kv3.4 mediated channel currents (hKv3.4 channels)	shift of the voltage-conductance curve for hK3.4 (hKv3.4 channels)	Compound	effect on Kv7.2/7.3-mediated currents [1]
No significant effect	did not significantly shift	Cc1ccc(Oc2ncc(N3C(=O)NC(C)(C)C3=O)cn2)c2c1OCC21CC1 [Compound 1, 5,5-dimethyl-3-[2-(7-methylspiro[2H-benzofuran-3,1′-cyclopropane]-4-yl)oxypyrimidin-5-yl]imidazolidine-2,4-dione]	Neither compound was found to have a significant effect
		CC[C@@]1(C)NC(=O)N(c2cnc(Oc3ccc(C)c(OC(F)(F)F)c3)nc2)C1=O [Compound 2, (5R)-5-ethyl-5-methyl-3-[2-({4-methyl-3-[(trifluoromethyl)oxy]phenyl}oxy)-5-pyrimidinyl]-2,4-imidazolidinedione]	Neither compound was found to have a significant effect
